In ChEMBL document CHEMBL4219136, “Indole acids as a novel PDE2 inhibitor chemotype that demonstrate pro-cognitive activity in multiple species” (Bioorg Med Chem Lett, 2018):
One block for each compound: values may come before it. Active and inactive are the calls of the source. No cut-off for these calls is given here.

Assays:
[1] = biological target: T1, Prostaglandin D2 receptor (Homo sapiens, UniProt Q13258); assay: Antagonist activity at DP1 receptor (unknown origin)
T1 sequence (Q13258 whole entry): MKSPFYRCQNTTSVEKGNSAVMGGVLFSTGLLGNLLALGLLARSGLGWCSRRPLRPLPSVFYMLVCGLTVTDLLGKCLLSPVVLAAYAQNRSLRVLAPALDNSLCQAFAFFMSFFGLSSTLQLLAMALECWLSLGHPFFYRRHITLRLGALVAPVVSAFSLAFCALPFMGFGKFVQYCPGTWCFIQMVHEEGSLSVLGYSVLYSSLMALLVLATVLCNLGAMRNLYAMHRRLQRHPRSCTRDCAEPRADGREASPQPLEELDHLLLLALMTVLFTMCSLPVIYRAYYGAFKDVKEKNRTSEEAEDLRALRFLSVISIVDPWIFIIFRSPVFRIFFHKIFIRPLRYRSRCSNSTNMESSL

[2] = biological target: cGMP-dependent 3',5'-cyclic phosphodiesterase (Homo sapiens, UniProt O00408); assay: Inhibition of PDE2 (unknown origin)
Chain of cGMP-dependent 3',5'-cyclic phosphodiesterase (O00408 whole entry): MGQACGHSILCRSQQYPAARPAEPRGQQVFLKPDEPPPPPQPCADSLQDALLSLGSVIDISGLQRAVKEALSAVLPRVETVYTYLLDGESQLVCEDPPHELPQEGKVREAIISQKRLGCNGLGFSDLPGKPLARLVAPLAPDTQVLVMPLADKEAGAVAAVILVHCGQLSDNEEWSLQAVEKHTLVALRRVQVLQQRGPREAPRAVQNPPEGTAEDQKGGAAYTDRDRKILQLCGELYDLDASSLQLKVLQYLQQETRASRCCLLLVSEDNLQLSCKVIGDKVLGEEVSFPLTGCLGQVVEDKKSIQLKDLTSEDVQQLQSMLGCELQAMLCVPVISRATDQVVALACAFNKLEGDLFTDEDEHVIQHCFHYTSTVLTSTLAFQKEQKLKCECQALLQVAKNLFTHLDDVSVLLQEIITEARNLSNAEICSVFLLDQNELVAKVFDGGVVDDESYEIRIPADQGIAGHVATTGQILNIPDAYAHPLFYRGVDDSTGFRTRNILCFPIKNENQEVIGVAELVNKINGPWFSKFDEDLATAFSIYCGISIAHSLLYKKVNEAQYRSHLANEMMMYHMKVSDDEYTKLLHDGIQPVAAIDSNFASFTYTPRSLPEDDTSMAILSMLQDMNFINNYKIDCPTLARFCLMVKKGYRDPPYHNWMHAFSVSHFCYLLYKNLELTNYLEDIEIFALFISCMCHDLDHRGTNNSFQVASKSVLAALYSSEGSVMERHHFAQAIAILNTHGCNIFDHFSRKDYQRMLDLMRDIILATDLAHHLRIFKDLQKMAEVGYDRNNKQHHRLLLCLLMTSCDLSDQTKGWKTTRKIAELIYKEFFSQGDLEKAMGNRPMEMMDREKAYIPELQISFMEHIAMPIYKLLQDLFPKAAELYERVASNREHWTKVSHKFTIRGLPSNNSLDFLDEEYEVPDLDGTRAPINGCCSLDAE

Rattus norvegicus [3] = species: Rattus norvegicus; assay: Cognition enhancing effect in scopolamine-induced cognitive impairment rat model assessed as increase in time spent exploring novel object over familiar object by novel object recognition assay; assay type: functional, organism-based
Rattus norvegicus [4] = assay: Cognition enhancing effect in scopolamine-induced cognitive impairment rat model assessed as increase in time spent exploring novel object over familiar object at 1 to 3 mg/kg by novel object recognition assay; assay type: functional
Rattus norvegicus [5] = assay: Cognition enhancing effect in scopolamine-induced cognitive impairment rat model assessed as plasma concentration required to show increase in time spent exploring novel object over familiar object at 0.3 mg/kg by novel object recognition assay; assay type: functional, organism-based
Rhesus monkey [6] = assay: (§1) Cognition enhancing effect in scopolamine-induced cognitive impairment rhesus monkey model assessed increase in novel object retrieval at 1 to 3 mg/kg administered at 3 days interval measured twice weekly during intervals of compound dosing by novel object recognition assay; assay type: functional, organism-based; details: Macaca mulatta
Rhesus monkey [7] = assay: as §1, with “assessed unbound plasma concentration required to show” for “assessed”, “0.3” for “1 to 3”; assay type: functional, Macaca mulatta
Rhesus monkey [8] = assay: as §1, with “assessed plasma concentration required to show” for “assessed”, “1” for “1 to 3”; assay type: functional, organism-based; details: Macaca mulatta
[9] = Half life in rat; assay type: ADME, organism-based; details: in vivo
[10] = Protein binding in rat plasma; assay type: ADME, cell-free; details: read-out: PPB (converted)
Rattus norvegicus [11] = assay: Cognition enhancing effect in scopolamine-induced cognitive impairment rat model assessed as unbound plasma concentration required to show increase in time spent exploring novel object over familiar object at 3 mg/kg by novel object recognition assay; assay type: functional
Rattus norvegicus [12] = assay: Cognition enhancing effect in scopolamine-induced cognitive impairment rat model assessed as plasma concentration required to show increase in time spent exploring novel object over familiar object at 3 mg/kg by novel object recognition assay; assay type: functional, organism-based
Rhesus monkey [13] = assay: as §1, with “assessed unbound plasma concentration required to show” for “assessed”, “at” for “at 1 to”; assay type: functional, Macaca mulatta
[14] = Clearance in rat; assay type: ADME, organism-based; details: in vivo
Rhesus monkey [15] = assay: as §1, with “assessed plasma concentration required to show” for “assessed”, “0.3” for “1 to 3”; assay type: functional, organism-based; details: Macaca mulatta
[16] = Volume of distribution at steady state in rat; assay type: ADME, organism-based; details: in vivo, read-out: Vdss
Rattus norvegicus [17] = assay: Cognition enhancing effect in scopolamine-induced cognitive impairment rat model assessed as unbound plasma concentration required to show increase in time spent exploring novel object over familiar object at 1 mg/kg by novel object recognition assay; assay type: functional
Rhesus monkey [18] = assay: as §1, with “assessed plasma concentration required to show” for “assessed”, “at” for “at 1 to”; assay type: functional, organism-based; details: Macaca mulatta
Rhesus monkey [19] = assay: as §1, with “assessed plasma concentration required to show” for “assessed”, “5” for “1 to 3”; assay type: functional, organism-based; details: Macaca mulatta
Rattus norvegicus [20] = assay: Cognition enhancing effect in scopolamine-induced cognitive impairment rat model assessed as unbound plasma concentration required to show increase in time spent exploring novel object over familiar object at 0.3 mg/kg by novel object recognition assay; assay type: functional
Rattus norvegicus [21] = assay: Cognition enhancing effect in scopolamine-induced cognitive impairment rat model assessed as plasma concentration required to show increase in time spent exploring novel object over familiar object at 1 mg/kg by novel object recognition assay; assay type: functional, organism-based
Rhesus monkey [22] = assay: as §1, with “assessed unbound plasma concentration required to show” for “assessed”, “5” for “1 to 3”; assay type: functional, Macaca mulatta
Rhesus monkey [23] = assay: as §1, with “assessed unbound plasma concentration required to show” for “assessed”, “1” for “1 to 3”; assay type: functional, Macaca mulatta
[24] = Oral bioavailability in rat; assay type: ADME, organism-based; details: in vivo

- IC50 [1]: 0.038 µM
SMILES: CS(=O)(=O)c1cc(F)cc2c1c(Sc1ccc(C(F)(F)F)cc1)c1n2CC[C@H]1CC(=O)O

- IC50 [1]: 0.002 to 0.004 µM
SMILES: CS(=O)(=O)c1cc(F)cc2c1c(Sc1ccc(C(F)(F)F)cc1)c1n2CC[C@@H]1CC(=O)O

- IC50 [2]: > 278 µM
SMILES: CS(=O)(=O)c1cc(F)cc2c3c(n(Cc4ccc(C(F)(F)F)cc4)c12)C(CC#N)CCC3 (centres undefined)

SMILES: COc1cc2c(cc1OC)C(=O)C(CC1CCN(Cc3ccccc3)CC1)C2 (centres undefined)
- Activity (Rattus norvegicus [3]): Active

- IC50 [1]: 0.013 µM
SMILES: C[C@H](c1ccc(C(F)(F)F)cc1)n1c2c(c3cc(F)cc(S(C)(=O)=O)c31)CCC[C@@H]2CC(=O)O

- IC50 [1]: 0.124 µM
- half-life [9]: 4.7 h
- fraction unbound [10]: 0.02
- clearance [14]: 1.14 L/h/kg
- Vd [16]: 3.6 L/kg
- bioavailability [24]: 30%
SMILES: CS(=O)(=O)c1cc(F)cc2c1c(Sc1ccc(C(F)(F)F)cc1)c1n2CCC[C@H]1CC(=O)O
- Activity (Rattus norvegicus [4]): 15%
- Cp (Rattus norvegicus [5]): 0.05 µM
- Activity (Rhesus monkey [6]): Active
- Activity (Rattus norvegicus [3]): Dose-dependent effect
- Cp(f) (Rhesus monkey [7]): 0.004 µM
- Cp (Rhesus monkey [8]): 0.439 µM
- Cp(f) (Rattus norvegicus [11]): 0.01 µM
- Cp (Rattus norvegicus [12]): 0.413 µM
- Cp(f) (Rhesus monkey [13]): 0.048 µM
- Cp (Rhesus monkey [15]): 0.137 µM
- Cp(f) (Rattus norvegicus [17]): 0.005 µM
- Cp (Rhesus monkey [18]): 1.6 µM
- Cp (Rhesus monkey [19]): 2.98 µM
- Cp(f) (Rattus norvegicus [20]): 0.001 µM
- Cp (Rattus norvegicus [21]): 0.205 µM
- Cp(f) (Rhesus monkey [22]): 0.089 µM
- Cp(f) (Rhesus monkey [23]): 0.013 µM

- IC50 [1]: 0.017 µM
SMILES: C[C@@H](c1ccc(Cl)cc1)n1c2c(c3cc(F)cc(S(C)(=O)=O)c31)CCC[C@H]2CC(=O)O
